Results as given in US20260256742A1, “ANDROGEN RECEPTOR ANTAGONISTS FOR THE TREATMENT OF PATIENTS WITH BIOCHEMICAL RECURRENCE OF HORMONE SENSITIVE PROSTATE CANCER” (BAYER CONSUMER CARE AG, priority 2023, published 2026).
Entries after “also recorded” stand apart in the source; their conditions may differ.

Experiments:
[1] = test system: AR; details: cited from earlier work
[2] = molecular target: P-glycoprotein (P-gp) (Homo sapiens, UniProt P08183); details: cited from earlier work
[3] = test system: prostate cancer cells rendered castration resistant via overexpression of AR; details: cited from earlier work
[4] = molecular target: T1, organic anion-transporting polypeptide (OATP)1B1 (Homo sapiens, UniProt Q9Y6L6); details: in vitro; cited from earlier work
T1 sequence (Q9Y6L6 1-691): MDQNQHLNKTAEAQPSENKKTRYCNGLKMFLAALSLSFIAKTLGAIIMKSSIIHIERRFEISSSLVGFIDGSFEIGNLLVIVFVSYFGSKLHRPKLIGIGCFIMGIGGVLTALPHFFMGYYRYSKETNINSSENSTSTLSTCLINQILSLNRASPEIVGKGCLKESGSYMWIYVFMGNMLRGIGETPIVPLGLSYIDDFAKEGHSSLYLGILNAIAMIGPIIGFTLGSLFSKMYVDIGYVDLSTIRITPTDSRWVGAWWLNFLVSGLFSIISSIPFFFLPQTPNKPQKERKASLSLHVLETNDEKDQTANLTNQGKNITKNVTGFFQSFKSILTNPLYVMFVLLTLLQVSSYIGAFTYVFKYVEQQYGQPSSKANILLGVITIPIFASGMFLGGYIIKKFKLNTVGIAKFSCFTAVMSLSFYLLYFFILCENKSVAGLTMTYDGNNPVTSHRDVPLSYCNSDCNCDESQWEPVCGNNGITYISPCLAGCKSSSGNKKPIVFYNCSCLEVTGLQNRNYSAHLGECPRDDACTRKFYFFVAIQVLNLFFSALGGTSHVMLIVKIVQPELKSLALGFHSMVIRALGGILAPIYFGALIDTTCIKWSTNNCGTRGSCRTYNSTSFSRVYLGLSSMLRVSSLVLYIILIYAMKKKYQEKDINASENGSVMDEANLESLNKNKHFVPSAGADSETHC

[5] = all investigated species including man; cited from earlier work
[6] = rats; cited from earlier work
[7] = rat, in vivo
[8] = test system: human prostate cancer xenograft models; details: cited from earlier work
[9] = test system: CYP1A2; details: in vitro; cited from earlier work
[10] = transgenic mouse carcinogenicity study; format: in vivo, 001178-T (hemizygous) RasH 2 mice; details: male and female RasH 2 mice, up to 500 mg/kg/dose BID, at least 26 weeks
[11] = test system: nine CYP isoforms; test: in vitro CYP inhibition; format: in vitro ADME; details: rank order and mechanistic static assessment
[12] = molecular target: T2, OATP1B3 (Homo sapiens, UniProt Q9NPD5); details: in vitro; cited from earlier work
T2 sequence (Q9NPD5 1-702): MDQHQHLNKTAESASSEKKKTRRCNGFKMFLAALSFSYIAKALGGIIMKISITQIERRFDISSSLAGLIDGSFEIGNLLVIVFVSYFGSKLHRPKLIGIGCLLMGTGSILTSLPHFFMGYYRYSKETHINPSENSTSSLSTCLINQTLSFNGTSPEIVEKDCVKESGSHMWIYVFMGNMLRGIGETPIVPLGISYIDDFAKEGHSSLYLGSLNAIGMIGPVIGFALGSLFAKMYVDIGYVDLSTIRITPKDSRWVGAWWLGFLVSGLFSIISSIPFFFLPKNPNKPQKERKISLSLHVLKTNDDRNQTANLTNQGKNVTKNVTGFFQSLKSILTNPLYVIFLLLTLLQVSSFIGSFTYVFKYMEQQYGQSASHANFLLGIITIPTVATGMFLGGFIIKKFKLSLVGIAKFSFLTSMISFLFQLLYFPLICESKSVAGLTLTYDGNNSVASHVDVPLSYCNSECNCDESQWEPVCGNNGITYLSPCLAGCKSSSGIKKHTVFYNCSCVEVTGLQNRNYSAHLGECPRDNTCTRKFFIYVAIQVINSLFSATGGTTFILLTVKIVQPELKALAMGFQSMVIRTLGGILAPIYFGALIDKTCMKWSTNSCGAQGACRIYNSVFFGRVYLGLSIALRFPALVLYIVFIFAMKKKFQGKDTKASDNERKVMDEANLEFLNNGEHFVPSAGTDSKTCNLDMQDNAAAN

[13] = in vitro and in vivo; cited from earlier work
[14] = test system: CYP2B6; details: in vitro; cited from earlier work
[15] = molecular target: P-gp (Homo sapiens, UniProt P08183); details: in vitro; cited from earlier work
P-gp, sequence (P08183 whole entry): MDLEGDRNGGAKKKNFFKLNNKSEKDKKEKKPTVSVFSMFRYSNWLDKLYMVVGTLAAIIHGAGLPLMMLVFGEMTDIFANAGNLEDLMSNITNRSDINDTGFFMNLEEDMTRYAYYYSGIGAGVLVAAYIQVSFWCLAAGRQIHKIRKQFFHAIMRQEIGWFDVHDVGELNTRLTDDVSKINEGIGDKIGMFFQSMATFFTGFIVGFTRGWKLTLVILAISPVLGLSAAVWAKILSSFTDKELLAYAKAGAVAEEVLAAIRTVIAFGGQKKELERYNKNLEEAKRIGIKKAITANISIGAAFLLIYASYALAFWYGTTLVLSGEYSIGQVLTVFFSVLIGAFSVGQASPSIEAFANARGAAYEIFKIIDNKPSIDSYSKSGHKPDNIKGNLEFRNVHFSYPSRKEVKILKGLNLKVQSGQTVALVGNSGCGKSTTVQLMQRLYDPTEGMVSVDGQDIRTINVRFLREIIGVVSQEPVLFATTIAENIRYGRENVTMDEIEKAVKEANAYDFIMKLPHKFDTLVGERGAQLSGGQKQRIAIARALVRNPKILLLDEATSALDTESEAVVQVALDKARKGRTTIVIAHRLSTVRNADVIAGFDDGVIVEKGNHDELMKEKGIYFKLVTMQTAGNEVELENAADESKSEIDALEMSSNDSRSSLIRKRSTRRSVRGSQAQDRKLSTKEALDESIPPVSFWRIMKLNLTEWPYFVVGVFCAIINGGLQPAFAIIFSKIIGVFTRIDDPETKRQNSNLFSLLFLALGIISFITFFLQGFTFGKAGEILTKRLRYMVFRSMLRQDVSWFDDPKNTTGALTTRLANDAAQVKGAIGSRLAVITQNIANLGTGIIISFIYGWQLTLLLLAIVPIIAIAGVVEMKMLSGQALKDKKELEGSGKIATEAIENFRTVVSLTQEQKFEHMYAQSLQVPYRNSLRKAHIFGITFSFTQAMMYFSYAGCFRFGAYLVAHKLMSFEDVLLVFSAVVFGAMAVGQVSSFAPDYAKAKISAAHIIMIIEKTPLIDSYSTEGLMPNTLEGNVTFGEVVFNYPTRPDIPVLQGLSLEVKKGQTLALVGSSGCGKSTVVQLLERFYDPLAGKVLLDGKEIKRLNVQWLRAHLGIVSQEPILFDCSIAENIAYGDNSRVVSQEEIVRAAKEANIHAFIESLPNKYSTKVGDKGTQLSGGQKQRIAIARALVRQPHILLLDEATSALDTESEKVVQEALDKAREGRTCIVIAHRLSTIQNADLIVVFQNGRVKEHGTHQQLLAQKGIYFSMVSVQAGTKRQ

P-glycoprotein (P-gp), sequence (P08183 whole entry): as above

CC(O)c1cc(C(=O)N[C@@H](C)Cn2ccc(-c3ccc(C#N)c(Cl)c3)n2)[nH]n1 (some centres unmarked) [Darolutamide]
binding affinity to the AR [1]: greater affinity than bicalutamide; also recorded: high affinity | substrate for P-gp [2]: substrate | agonist activity with AR overexpression [3]: lacks the partial agonist activity | inhibition of OATP1B1-mediated transport [4]: observed | major metabolites observed in plasma [5]: Only one major metabolite, keto-darolutamide | absorption [6]: complete and rapid absorption | bioavailability [6]: high bioavailability | additional changes to reproductive tissues [7]: minimal increase in vacuolation of the pituitary gland, atrophy and secretory reduction in seminal vesicles and mammary glands | deaths during the treatment period [7]: No deaths occurred | other adverse effects [7]: No other adverse effects were observed | reversibility of changes in the male reproductive organs [7]: reversed or partially resolved | tumor regression ([8]; non-castrate hormone-sensitive and bicalutamide-resistant human prostate cancer xenograft models): partial or complete tumor regression | prostate tumor progression ([8]; several cell line- and patient derived models): inhibits prostate tumor progression | induction of CYP1A2 activity [9]: no relevant induction | carcinogenic potential [10]: no carcinogenic potential | risk of clinically relevant DDIs via CYP inhibition [11]: very low | inhibition of OATP1B3-mediated transport [12]: observed | interconversion of the diastereoisomers (S,R)- and (S,S)- via keto-darolutamide [13]: Rapid interconversion | induction of CYP2B6 activity [14]: no relevant induction | inhibition of P-gp-mediated transport [15]: observed
